From US11584714B2 (priority 2018, dated 2023)
Counter-ions that a name gives are not always drawn. Like-named read-outs stand apart in the source and are kept apart here.

Tests used:
Format in all cases: biochemical
[1] = biological target: MASP-2 (CCP1-CCP2-SP) (Homo sapiens (Human), UniProt O00187); assay: biochemical
[2] = biological target: mMASP-2 (Mus musculus (Mouse), UniProt Q91WP0); assay: Enzymatic inhibition of mMASP-2
[3] = biological target: human α-thrombin (Homo sapiens (Human), UniProt P00734); assay: Enzymatic assay for thrombin (Boc-VPR-AMC substrate)
[4] = system: Lectin Pathway; assay: Lectin pathway activation assay in human serum (mannan-coated ELISA, C3c detection); conditions: 1% human serum
[5] = selectivity for MASP-2 inhibition versus thrombin

MASP-2 (CCP1-CCP2-SP), sequence (O00187 445-686): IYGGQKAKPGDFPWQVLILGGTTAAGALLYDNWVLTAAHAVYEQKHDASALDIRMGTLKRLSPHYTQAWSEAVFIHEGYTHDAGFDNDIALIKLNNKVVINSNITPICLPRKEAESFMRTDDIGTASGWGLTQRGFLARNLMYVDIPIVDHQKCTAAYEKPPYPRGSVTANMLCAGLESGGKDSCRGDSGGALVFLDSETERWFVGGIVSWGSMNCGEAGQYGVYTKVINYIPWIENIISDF
mMASP-2, sequence (Q91WP0 20-685): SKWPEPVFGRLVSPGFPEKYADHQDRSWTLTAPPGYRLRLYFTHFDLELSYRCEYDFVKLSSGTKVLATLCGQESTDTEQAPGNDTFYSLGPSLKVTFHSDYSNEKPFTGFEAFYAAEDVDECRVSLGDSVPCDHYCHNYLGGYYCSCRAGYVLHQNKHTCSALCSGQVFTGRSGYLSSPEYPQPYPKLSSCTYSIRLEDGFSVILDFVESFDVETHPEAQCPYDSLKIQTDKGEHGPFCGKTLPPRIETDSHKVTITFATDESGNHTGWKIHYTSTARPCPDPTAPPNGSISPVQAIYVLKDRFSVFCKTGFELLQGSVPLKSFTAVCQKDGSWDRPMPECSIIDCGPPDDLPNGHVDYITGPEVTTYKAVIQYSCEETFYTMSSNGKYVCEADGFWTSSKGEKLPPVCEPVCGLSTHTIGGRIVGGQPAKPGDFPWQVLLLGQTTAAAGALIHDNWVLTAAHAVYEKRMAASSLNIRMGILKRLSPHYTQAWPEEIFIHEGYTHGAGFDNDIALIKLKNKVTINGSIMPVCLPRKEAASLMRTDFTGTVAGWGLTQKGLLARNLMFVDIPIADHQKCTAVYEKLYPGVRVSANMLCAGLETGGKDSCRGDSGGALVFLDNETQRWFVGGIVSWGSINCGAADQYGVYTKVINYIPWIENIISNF

SMILES | Ki ([1]; read-out: MASP-2 Ki) [nM] | MASP-2 vs. thrombin selectivity [1, 5] | Ki ([2]; read-out: mMASP-2 Ki) [nM] | Ki ([3]; Thrombin Ki (μM)) [µM] | IC50 [4] [nM] | Ki ([3]; read-out: Thrombin Ki) [µM] | MASP-2 vs. thrombin selectivity ([1]; MASP-2 inhibition versus thrombin) | Ki [1] [nM] | Ki [2] [nM]
Cc1cc(Cl)cc(CNC(=O)[C@H](C)NC(=O)[C@H]2C[C@@H](Cc3ccccc3)CCN2)c1O [compound 1363, (2R,4S)-4-Benzyl-N-((S)-1-((5-chloro-2-hydroxy-3-methylbenzyl)amino)-1-oxopropan-2-yl)piperidine-2-carboxamide Hydrochloride] | < 500 | **** (≥100-fold) | < 500 | 2.5 to 10 | 50 to 500 |  |  |  | 
Cc1nc(N)ccc1CNC(=O)[C@H](C)NC(=O)[C@H]1C[C@H](Cc2ccc(Cl)cc2Cl)CN1 [compound 1443, (2R,4S)—N—((S)-1-(((6-Amino-2-methylpyridin-3-yl)methyl)amino)-1-oxopropan-2-yl)-4-(2,4-dichlorobenzyl)pyrrolidine-2-carboxamide Dihydrochloride] | < 500 | *** (≥25 to <100-fold) | < 500 | 0.5 to 2.5 | 500 to 5000 |  |  |  | 
Cc1nc(N)ccc1CNC(=O)[C@H](C)NC(=O)[C@H]1C[C@H](Cc2ccc(-c3ccc(F)cc3C(N)=O)cc2)CN1 [compound 1397, (2R,4S)—N—((S)-1-(((6-amino-2-methylpyridin-3-yl)methyl)amino)-1-oxopropan-2-yl)-4-((2′-carbamoyl-4′-fluoro-[1,1′-biphenyl]-4-yl)methyl)pyrrolidine-2-carboxamide Di-trifluoroacetate salt] | < 500 | **** (≥100-fold) | < 500 |  | 50 to 500 | > 25 |  |  | 
Cc1ccccc1CN1CCN[C@@H](C(=O)N[C@@H](C)C(=O)NCc2ccc(N)nc2C)C1 [compound 1348, (R)—N—((S)-1-(((6-Amino-2-methylpyridin-3-yl)methyl)amino)-1-oxopropan-2-yl)-4-(2-methylbenzyl)piperazine-2-carboxamide Dihydrochloride] | < 500 | *** (≥25 to <100-fold) | < 500 |  | < 50 | < 0.5 |  |  | 
Cc1nc(N)ccc1CNC(=O)[C@H](C)NC(=O)[C@H]1C[C@H](Cc2ccc(Cl)c(Br)c2)CN1 [compound 1451, (2R,4S)—N—((S)-1-(((6-Amino-2-methylpyridin-3-yl)methyl)amino)-1-oxopropan-2-yl)-4-(3-bromo-4-chlorobenzyl)pyrrolidine-2-carboxamide Di-trifluoroacetate salt] | < 500 | **** (≥100-fold) | < 500 | 10 to 25 | 500 to 5000 |  |  |  | 
C[C@H](NC(=O)[C@H]1C[C@H](Cc2cccc3ccccc23)CN1)C(=O)NCc1cc(Cl)ccc1-n1cnnn1 [compound 1414, (2R,4S)—N—((S)-1-((5-Chloro-2-(1H-tetrazol-1-yl)benzyl)amino)-1-oxopropan-2-yl)-4-(naphthalen-1-ylmethyl)pyrrolidine-2-carboxamide Hydrochloride] | < 500 | −− (<1.0-fold) | < 500 |  | 50 to 500 | < 0.5 |  |  | 
CC(=O)Nc1ccc(CCN[C@H](CCc2ccccc2)C(=O)N[C@@H](C)C(=O)NCc2ccc(C(=N)N)cc2)cc1 [compound 1345, (R)-2-((4-acetamidophenethyl)amino)-N-((S)-1-((4-carbamimidoylbenzyl)amino)-1-oxopropan-2-yl)-4-phenylbutanamide dihydrochloride] | < 500 | **** (≥100-fold) | < 500 |  | < 50 | < 0.5 |  |  | 
Cc1nc(N)ccc1CNC(=O)[C@H](C)NC(=O)[C@H]1C[C@H](Cc2ccc(F)c3ccccc23)CN1 [compound 1423, (2R,4S)—N—((S)-1-(((6-Amino-2-methylpyridin-3-yl)methyl)amino)-1-oxopropan-2-yl)-4-((4-fluoronaphthalen-1-yl)methyl)pyrrolidine-2-carboxamide Dihydrochloride] | < 500 | **** (≥100-fold) | < 500 | 2.5 to 10 | 50 to 500 |  |  |  | 
Cc1nc(N)ccc1CNC(=O)[C@H](C)NC(=O)[C@H]1C[C@H](Cc2cccc3ccccc23)CN1 [compound 1324, (2R,4S)—N—((S)-1-(((6-Amino-2-methylpyridin-3-yl)methyl)amino)-1-oxopropan-2-yl)-4-(naphthalen-1-ylmethyl)pyrrolidine-2-carboxamide Di-trifluoroacetate salt] | < 500 | *** (≥25 to <100-fold) | < 500 | 0.5 to 2.5 | 50 to 500 |  |  |  | 
Cc1nc(N)ccc1CNC(=O)[C@H](C)NC(=O)[C@H]1CN(Cc2ccccc2)CCN1 [compound 1347, (R)—N—((S)-1-(((6-Amino-2-methylpyridin-3-yl)methyl)amino)-1-oxopropan-2-yl)-4-benzylpiperazine-2-carboxamide Dihydrochloride] | < 500 | *** (≥25 to <100-fold) | < 500 | 0.5 to 2.5 | < 50 |  |  |  | 
C[C@H](NC(=O)[C@H](N)CCc1ccccc1)C(=O)NCc1ccc2nc(N)[nH]c2c1 (single isomer, unassigned) [compound 1040, Di-trifluoroacetate salt] | < 500 |  | < 500 |  | 500 to 5000 | > 25 | **** (>100-fold) |  | 
Cc1nc(N)ccc1CNC(=O)[C@H](C)NC(=O)[C@H]1C[C@H](Cc2ccc(C(C)(C)C)cc2)CN1 [compound 1380, (2R,4S)—N—((S)-1-(((6-Amino-2-methylpyridin-3-yl)methyl)amino)-1-oxopropan-2-yl)-4-(4-(tert-butyl)benzyl)pyrrolidine-2-carboxamide Dihydrochloride] |  | *** (≥25 to <100-fold) | < 500 |  | > 50000 | > 25 |  | 500 to 2500 | 
Cc1nc(N)ccc1CNC(=O)[C@H](C)NC(=O)[C@H]1C[C@H](Cc2ccc(-c3nccs3)cc2)CN1 [compound 1361, (2R,4S)—N—((S)-1-(((6-Amino-2-methylpyridin-3-yl)methyl)amino)-1-oxopropan-2-yl)-4-(4-(thiazol-2-yl)benzyl)pyrrolidine-2-carboxamide Di-trifluoroacetate salt] | < 500 | **** (≥100-fold) | < 500 |  | < 50 | > 25 |  |  | 
Cc1cnc(NCCc2ccccc2)c(=O)n1CC(=O)NCc1cnc2[nH]cc(Cl)c2c1 [compound 1490, N-((3-Chloro-1H-pyrrolo[2,3-b]pyridin-5-yl)methyl)-2-(6-methyl-2-oxo-3-(phenethylamino)pyrazin-1(2H)-yl)acetamide Acetate salt] | < 500 | −− (<1.0-fold) |  |  | 5000 to 50000 | < 0.5 |  |  | 2500 to 10000
C[C@H](NC(=O)[C@H]1C[C@H](Cc2ccc3ccccc3c2)CN1)C(=O)NCc1cnc2[nH]cc(Cl)c2c1 [compound 1392, (2R,4S)—N—((S)-1-(((3-Chloro-1H-pyrrolo[2,3-b]pyridin-5-yl)methyl)amino)-1-oxopropan-2-yl)-4-(naphthalen-2-ylmethyl)pyrrolidine-2-carboxamide Di-Trifluoroacetate salt] | < 500 | *** (≥25 to <100-fold) | < 500 | 0.5 to 2.5 | 500 to 5000 |  |  |  | 
Cc1nc(N)ccc1CNC(=O)[C@H](C)NC(=O)[C@H]1C[C@@H](Cc2ccccc2)CCN1 [compound 1353, (2R,4S)—N—((S)-1-(((6-Amino-2-methylpyridin-3-yl)methyl)amino)-1-oxopropan-2-yl)-4-benzylpiperidine-2-carboxamide Dihydrochloride] | < 500 | *** (≥25 to <100-fold) | < 500 |  | < 50 | < 0.5 |  |  | 
Cc1nc(N)ccc1CNC(=O)[C@H](C)NC(=O)[C@H]1C[C@H](Oc2ccc(Br)cc2)CN1 [compound 1445, (2R,4S)—N—((S)-1-(((6-Amino-2-methylpyridin-3-yl)methyl)amino)-1-oxopropan-2-yl)-4-(4-bromophenoxy)pyrrolidine-2-carboxamide Dihydrochloride] | < 500 | **** (≥100-fold) | 500 to 2500 |  | 5000 to 50000 | > 25 |  |  | 
Cc1nc(N)ccc1CNC(=O)[C@H](C)NC(=O)[C@H]1C[C@H](Cc2ccc(Cl)c(Cl)c2)CN1 [compound 1422, (2R,4S)—N—((S)-1-(((6-Amino-2-methylpyridin-3-yl)methyl)amino)-1-oxopropan-2-yl)-4-(3,4-dichlorobenzyl)pyrrolidine-2-carboxamide Dihydrochloride] | < 500 | **** (≥100-fold) | < 500 | 2.5 to 10 | 500 to 5000 |  |  |  | 
C[C@H](NC(=O)[C@@H](CCc1ccccc1)NCCc1cccc(OC(F)(F)F)c1)C(=O)NCc1ccc(C(=N)N)cc1 [compound 1352, (R)—N—((S)-1-((4-Carbamimidoylbenzyl)amino)-1-oxopropan-2-yl)-4-phenyl-2-((3-(trifluoromethoxy)phenethyl)amino)butanamide Di-trifluoroacetate salt] | < 500 | *** (≥25 to <100-fold) | < 500 | 0.5 to 2.5 | 50 to 500 |  |  |  | 
Cc1cc(Cl)cc(CNC(=O)[C@H](C)NC(=O)[C@H]2C[C@H](Cc3ccc4ccccc4c3)CN2)c1O [compound 1370, (2R,4S)—N—((S)-1-((5-Chloro-2-hydroxy-3-methylbenzyl)amino)-1-oxopropan-2-yl)-4-(naphthalen-2-ylmethyl)pyrrolidine-2-carboxamide] | < 500 |  |  |  | 50 to 500 | > 25 |  |  | 500 to 2500
